# Test results from patent publication US20090069417A1, “CAROTENOID OXIDATION PRODUCTS AS CHEMOPREVENTIVE AND CHEMOTHERAPEUTIC AGENTS” (priority 2005, published 2009).
# Tests used:
# [1] = system: WB-F344 rat liver epithelial cells; settings: cited from earlier work
# [2] = system: antioxidant response element (ARE) in MCF-7 and T47D cells; experiment: ARE induction in human breast cancer cell lines (FIG. 2A); type: cell-based; settings: compared with lycopene
# Protocol: Cell transfection and reporter gene assays were generally carried out as follows. Some variations may be adopted for different cell lines: Cells were transfected using TFx-50 reagent (Promega, Madison, Wis.) with ca. 0.07 μg of DNA containing 0.05 μg of reporter plasmid and 0.02 μg of Renilla luciferase expression vector (P-RL-null vector, Promega) as an internal standard. For this purpose, cells were seeded in 24-well plates (100,000 cells per well). After 1 day, cells were rinsed twice with the appropriate culture medium without serum, followed by the addition of 0.2 mL of medium containing DNA and TFx-50 reagent at a charge ratio of 1:3. The cells were then incubated for 30 minutes at 37° C. in 95% air/5% CO2. Four hundred microliters of medium containing 3% charcoal-stripped delipidated FCS were added and incubation continued for 8 hours. This was then replaced by medium supplemented with 3% delipidated FCS and the test compounds and cells were incubated for another 16 hours. Cell extracts were prepared for luciferase reporter assay (Dual Luciferase Reporter Assay System, Promega) according to the manufacturer's instructions. […]
# [3] = system: antioxidant response element (ARE); experiment: ARE reporter gene (luciferase) assay, transient transfection; type: cell-based, human; settings: FIG. 1, mean of 3-6 experiments, expressed as ratio to stimulation obtained with tBHQ, compared in words
# Source text: ARE reporter constructs were provided by Dr. J. J. Gipp (University of Wisconsin Medical School, Madison, Wis.; Ref 18). NQO1hARE-tk-luc and GCShARE4-tk-luc contain sequences of the active response elements from the promoters of human NQO1 and GCS heavy subunit, respectively. GCShARE4m-tk-luc, a non-active mutant form of the latter construct, contains a single base mutation in the relevant sequence.
# Cell transfection and reporter gene assays were generally carried out as follows. Some variations may be adopted for different cell lines: Cells were transfected using TFx-50 reagent (Promega, Madison, Wis.) with ca. 0.07 μg of DNA containing 0.05 μg of reporter plasmid and 0.02 μg of Renilla luciferase expression vector (P-RL-null vector, Promega) as an internal standard. For this purpose, cells were seeded in 24-well plates (100,000 cells per well). After 1 day, cells were rinsed twice with the appropriate culture medium without serum, followed by the addition of 0.2 mL of medium containing DNA and TFx-50 reagent at a charge ratio of 1:3. The cells were then incubated for 30 minutes at 37° C. in 95% air/5% CO2. Four hundred microliters of medium containing 3% charcoal-stripped delipidated FCS were added and incubation continued for 8 hours. This was then replaced by medium supplemented with 3% delipidated FCS and the test compounds and cells were incubated for another 16 hours. Cell extracts were prepared for luciferase reporter assay (Dual Luciferase Reporter Assay System, Promega) according to the manufacturer's instructions.
# The effects of lycopene and several lycopene derivatives on antioxidant response element (ARE) induction were tested in all of the cancer cell lines mentioned above. The assay employed measures the transcriptional activity of the antioxidant response element which is activated by the Nrf2 transcription factor, and its activation by carotenoids and their derivatives. Parts of a promoter of the genes of interest were fused to a luciferase reporter gene as described in Materials and Methods. The constructs were transfected into the cells. Cells were incubated with carotenoids or derivatives and activation of transcription was measured.
# The results are depicted in FIG. 1 as the mean of 3-6 experiments. The standard errors of the mean (SEs) (not shown) were not higher than 10% of the mean. In order to decrease the variation between experiments, the results are expressed as the ratio of stimulation obtained with each specific derivative to that obtained with tBHQ (a well known positive control in this system).
# MCF-7 and T47D cells = experiment: Cell proliferation, [3H]thymidine incorporation, mammary cancer cells (FIG. 2B); type: cell-based, human; settings: compared with lycopene
# Protocol: MCF-7, human mammary cancer cells were purchased from American Type Culture Collection (Rockwell, Md.). MCF-7 cells were grown in DMEM containing penicillin (100 units/mL), streptomycin (0.1 mg/mL), nystatin (12.5 Ag/mL), 0.6 μg/mL insulin, and 10% FCS. T47D, human mammary cancer cell line, were provided by Dr. Yafa Keidar (Tel-Aviv University, Israel) and were grown in DMEM medium. LNCaP human prostate cancer cells were purchased from American Type Culture Collection (Rockwell, Md.) and were grown on RPMI medium. The medium contained penicillin (100 U/ml), streptomycin (0.1 mg/ml) nystatin (12.5 μg/ml), and 10% fetal calf serum (FCS), and 6 μg/ml insulin. Prior to each experiment, the cells were depleted of steroid hormones and maintained for 3-5 days in phenol red-free DMEM supplemented with 10% DCC FCS.
# MCF-7, LNCaP and T47D cells were seeded in 96-well plates. After one day, the medium was replaced with one containing the various materials. In each day of the experiment one plate was used for the thymidine incorporation assay. Thymidine incorporation was determined as follows: 2.5 μCi/well of [^3H]thymidine (specific radioactivity 5 mCi/mmol) containing cold thymidine (100 μM) was added and the plate were incubated (37° C.) for 1 hr (MCF-7 cells) or for 3 hr (LNCaP, T47D cells). […] Radioactivity was determined by a radioactive image analyzer (BAS 1000, Fuji, Japan). […]
# [4] = system: HL-60 human promyelocytic leukemia cells; settings: HL-60 cells; cited from earlier work
# [5] = system: mammary, endometrial, lung and leukemic cancer cell growth; settings: lung and leukemic cancer cells, dose-dependent, read-out: IC50, inhibition of cancer cell growth; cited from earlier work
# [6] = system: reporter genes fused with ARE sequences; settings: transiently transfected cancer cells; cited from earlier work
compound,measurement,setting,value
"C\C(C=O)=C/C=C/C=C(C)/C=C/C=C(C)/C=C/C=O [2,7,11-trimethyl-tetradecahexaene-1,14-dial]",stimulation of gap junctional communication (GJC),[1],stimulates gap junctional communication
"C\C(C=O)=C/C=C/C(C)=C/C=C/C=C(C)/C=C/C=C(\C)C=O [8,8′, diapo-8,8′-lycopendial]",ARE induction,[2],less active
same,stimulation of transcription of ARE reporter genes,[3],much less active
same,inhibition of cell proliferation,MCF-7 and T47D cells,less active
"C\C(C=O)=C/C=C/C=C(C)/C=C/C=C(\C)C=O [8′,12, diapo-8′,12-lycopendial]",stimulation of transcription of ARE reporter genes,[3],more active than the parent molecule lycopene
same,stimulation of transcription of ARE reporter genes,[3]; listed as 8′12,most active
"CC(/C=C/C=O)=C\C=C\C=C(C)\C=C\C=O [10,10′, diapo-10,10′-lycopendial]",ARE induction,[2],more active than lycopene
same,stimulation of transcription of ARE reporter genes,[3],more active than the parent molecule lycopene
same,stimulation of transcription of ARE reporter genes,[3]; listed as 10′10,most active
same,inhibition of cell proliferation,MCF-7 and T47D cells,more active than lycopene
"C\C(C=O)=C/C=C/C=C(\C)C=O [12,12′, diapo-12,12′-lycopendial]",stimulation of transcription of ARE reporter genes,[3],much less active
"CC(=O)/C=C/C=C(C)/C=C/C=O [(E,E,E)-4-methyl-8-oxo-2,4,6-nonatrienal]",induction of apoptosis,[4],induces apoptosis
"CC(C)=CCC/C(C)=C/C=C/C(C)=C/C=C/C(C)=C/C=C/C=C(C)/C=C/C=C(C)/C=C/C=C(\C)CCC=C(C)C [lycopene, Lycopene]",IC50,[5],~2 µM
same,transactivation of ARE reporter genes,[6],capable of transactivating the expression of reporter genes fused with ARE sequences
"diapo-8′,15-lycopendial",stimulation of transcription of ARE reporter genes,[3],more active than the parent molecule lycopene
same,stimulation of transcription of ARE reporter genes,[3]; listed as 8′15,also active
